Test results published in patent US20250353873A1, “COMPOUNDS AND METHODS FOR MODULATING APOE EXPRESSION” (Ionis Pharmaceuticals, Inc., priority 2024, published 2025).
Strand notation (5' to 3'): a small letter for the sugar, then the base; units joined by * are phosphorothioate-linked, units joined directly phosphodiester-linked; [ ] holds rarer units or linkages, { } end groups; capitals alone tell only the bases. [ms] = mesyl phosphoramidate linkage; e = 2'-O-(2-methoxyethyl) (MOE); k = constrained ethyl (cEt); [5mC] = 5-methylcytosine; d = 2'-deoxy (DNA)

Columns and labels:
human APOE RNA [1] = test: Activity in APOE C57BL/6NTac-Apoeem7250 knock-in mice, single ICV bolus, 20 weeks (Example 13); assay type: in vivo; conditions: single ICV bolus 300 μg, 20 weeks post treatment, normalized to mouse Ppia
Summary of the method: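 Knock-in mice (n=4) given a single ICV bolus of 300 μg oligonucleotide, PBS as control. After 20 weeks, human APOE RNA in cortex and spinal cord measured by RT-qPCR, normalized to mouse Ppia, expressed as % of PBS-treated animals.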

human APOE RNA [2] = test: Dose-dependent inhibition of human APOE RNA in HepG2 cells, electroporation, 50,000 cells per well, RT-PCR normalized to GAPDH (Example 4, Tables 8-10); assay type: cell-based; conditions: for APOE RNA (% UTC) 1,280 nM: 24-hour treatment, 1,280 nM; for APOE RNA (% UTC) 3,200 nM: 24-hour treatment, 3,200 nM; for APOE RNA (% UTC) 8,000 nM: 24-hour treatment, 8,000 nM; for APOE RNA (% UTC) 20,000 nM: 24-hour treatment, 20,000 nM
Summary of the method: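 HepG2 cells, 50,000 per well, electroporated with modified oligonucleotide at various concentrations. APOE RNA quantified by RT-PCR with human primer probe set RTS3073, normalized to GAPDH. Values are percent APOE RNA relative to untreated control cells.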

human APOE RNA [3] = test: Activity in APOE C57BL/6NTac-Apoeem7250 knock-in mice, single ICV bolus, 4 weeks (Example 10); assay type: in vivo; conditions: single ICV bolus 300 μg, 4 weeks post treatment, normalized to mouse Ppia
Summary of the method: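 Knock-in mice (2–4 per group) received one 300 μg ICV bolus of oligonucleotide or PBS. After four weeks, human APOE RNA in cortex and spinal cord measured by RT-qPCR (primer probe set RTS3073), normalized to mouse Ppia, expressed as % of PBS controls.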

human APOE RNA [4] = test: Activity in APOE C57BL/6NTac-Apoeem7250 knock-in mice, single ICV bolus, 16 weeks (Example 12); assay type: in vivo; conditions: single ICV bolus 300 μg, 16 weeks post treatment, normalized to mouse Ppia
Summary of the method: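 Knock-in mice (3-4 per group) received one ICV bolus of 300 μg oligonucleotide, PBS as control. After 16 weeks, human APOE RNA in cortex and spinal cord measured by RT-qPCR, normalized to mouse Ppia, and reported as % of PBS control.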

human APOE RNA [5] = test: Activity in APOE C57BL/6NTac-Apoeem7250 knock-in mice, single ICV bolus, 8 weeks (Example 11); assay type: in vivo; conditions: single ICV bolus 300 μg, 8 weeks post treatment, normalized to mouse Ppia
Summary of the method: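 Human APOE knock-in C57BL/6NTac mice given one ICV bolus of 300 μg oligonucleotide; PBS-dosed group as control. At 8 weeks, cortex and spinal cord RNA measured by qRT-PCR (human probe RTS3073), normalized to mouse Ppia, expressed as % of PBS control.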

[6] = HepG2 cells, electroporation, 24-hour treatment, 5 nM, Table 8
[7] = HepG2 cells, electroporation, 24-hour treatment, 13 nM, Table 8
[8] = HepG2 cells, electroporation, 24-hour treatment, 33 nM, Table 8
[9] = HepG2 cells, electroporation, 24-hour treatment, 82 nM, Table 8
[10] = HepG2 cells, electroporation, 24-hour treatment, 205 nM, Table 8
[11] = HepG2 cells, electroporation, 24-hour treatment, 512 nM, Table 8
[12] = HepG2 cells, electroporation, Table 8
[13] = reduction of human APOE RNA, HepG2 cells, electroporation, 24-hour treatment, Table 8
[14] = 5 nM, HepG2, electroporation, 16-hour treatment
[15] = 13 nM, HepG2, electroporation, 16-hour treatment
[16] = 33 nM, HepG2, electroporation, 16-hour treatment
[17] = 82 nM, HepG2, electroporation, 16-hour treatment
[18] = 205 nM, HepG2, electroporation, 16-hour treatment
[19] = 512 nM, HepG2, electroporation, 16-hour treatment
[20] = 1,280 nM, HepG2, electroporation, 16-hour treatment
[21] = 3,200 nM, HepG2, electroporation, 16-hour treatment
[22] = 8,000 nM, HepG2, electroporation, 16-hour treatment
[23] = 20,000 nM, HepG2, electroporation, 16-hour treatment
[24] = HepG2, electroporation, 16-hour treatment

Substance	APOE RNA (% control) Cortex (human APOE RNA [1])	APOE RNA (% control) Spinal Cord (human APOE RNA [1])	APOE RNA (% UTC) 5 nM (human APOE RNA [2]; [6])	APOE RNA (% UTC) 13 nM (human APOE RNA [2]; [7])	APOE RNA (% UTC) 33 nM (human APOE RNA [2]; [8])	APOE RNA (% UTC) 82 nM (human APOE RNA [2]; [9])	APOE RNA (% UTC) 205 nM (human APOE RNA [2]; [10])	APOE RNA (% UTC) 512 nM (human APOE RNA [2]; [11])	APOE RNA (% UTC) 1,280 nM (human APOE RNA [2]; [12])	APOE RNA (% UTC) 3,200 nM (human APOE RNA [2]; [12])	APOE RNA (% UTC) 8,000 nM (human APOE RNA [2]; [12])	APOE RNA (% UTC) 20,000 nM (human APOE RNA [2]; [12])	IC50 (human APOE RNA [2]; [13])	APOE RNA (% control) Cortex (human APOE RNA [3])	APOE RNA (% control) Spinal Cord (human APOE RNA [3])	APOE RNA (% control) Cortex (human APOE RNA [4])	APOE RNA (% control) Spinal Cord (human APOE RNA [4])	APOE RNA (% control) Cortex (human APOE RNA [5])	APOE RNA (% control) Spinal Cord (human APOE RNA [5])	APOE RNA (% UTC) (human APOE RNA [2]; [14])	other results
1778114: modified oligonucleotide complementary to human APOE RNA (eA*e[5mC]eTeTkG*kG*dT*dG[ms]dA[ms]dA*dT*d[5mC]*dT*dT*dT*dA[ms]eTeT*eA*eA; antisense) [compound 1778114]	56 % control	26 % control	78 % UTC	82 % UTC	78 % UTC	78 % UTC	67 % UTC	45 % UTC	42 % UTC	20 % UTC	11 % UTC	7 % UTC	430 nM	37 % control	57 % control	52 % control	27 % control	47 % control	32 % control	–	–
1757574 (eA*e[5mC]eTeT*eG*eG*dT*dG[ms]dA[ms]dA[ms]dT*d[5mC]*dT*dT*dT*dA[ms]kT*kT*eA*eA; antisense) [Compound 1757574]	60 % control	68 % control	–	–	–	–	–	–	–	–	–	–	–	43 % control	32 % control	55 % control	22 % control	44 % control	21 % control	90 % UTC	APOE RNA (% UTC) (human APOE RNA [2]; [15]): 80 % UTC; APOE RNA (% UTC) (human APOE RNA [2]; [16]): 85 % UTC; APOE RNA (% UTC) (human APOE RNA [2]; [17]): 78 % UTC; APOE RNA (% UTC) (human APOE RNA [2]; [18]): 93 % UTC; APOE RNA (% UTC) (human APOE RNA [2]; [19]): 66 % UTC; APOE RNA (% UTC) (human APOE RNA [2]; [20]): 47 % UTC; APOE RNA (% UTC) (human APOE RNA [2]; [21]): 28 % UTC; APOE RNA (% UTC) (human APOE RNA [2]; [22]): 19 % UTC; APOE RNA (% UTC) (human APOE RNA [2]; [23]): 20 % UTC; IC50 (human APOE RNA [2]; [24]): 1170 nM
1778125: modified oligonucleotide complementary to human APOE RNA (eA*e[5mC]eTeTeGeG*dT*dG[ms]dA[ms]dA*dT*d[5mC]*dT*dT*dT*dA[ms]kTkT*eA*eA; antisense) [compound 1778125]	81 % control	49 % control	108 % UTC	100 % UTC	77 % UTC	74 % UTC	63 % UTC	39 % UTC	22 % UTC	17 % UTC	5 % UTC	3 % UTC	320 nM	40 % control	52 % control	75 % control	42 % control	59 % control	37 % control	–	–
1778123: modified oligonucleotide complementary to human APOE RNA (eA*e[5mC]eTeTeG*eG*dT*dG[ms]dA[ms]dA*dT*d[5mC]*dT*dT*dT*dA[ms]kTkT*eA*eA; antisense) [compound 1778123]	77 % control	36 % control	79 % UTC	91 % UTC	84 % UTC	76 % UTC	55 % UTC	51 % UTC	25 % UTC	11 % UTC	6 % UTC	5 % UTC	320 nM	37 % control	59 % control	54 % control	31 % control	49 % control	29 % control	–	–
1778127: modified oligonucleotide complementary to human APOE RNA (eA*e[5mC]eTeTkGkG*dT*dG[ms]dA[ms]dA*dT*d[5mC]*dT*dT*dT*dA[ms]kTeT[ms]eA[ms]eA; antisense) [compound 1778127]	57 % control	43 % control	98 % UTC	88 % UTC	85 % UTC	82 % UTC	55 % UTC	31 % UTC	30 % UTC	16 % UTC	14 % UTC	4 % UTC	310 nM	32 % control	53 % control	48 % control	25 % control	28 % control	14 % control	–	–
1757571 (eA*e[5mC]eTeT*eG*kG*dT*dG[ms]dA[ms]dA[ms]dT*d[5mC]*dT*dT*dT*dA[ms]eT*eT*eA*eA; antisense) [Compound 1757571]	53 % control	73 % control	–	–	–	–	–	–	–	–	–	–	–	48 % control	35 % control	47 % control	26 % control	66 % control	33 % control	68 % UTC	APOE RNA (% UTC) (human APOE RNA [2]; [15]): 86 % UTC; APOE RNA (% UTC) (human APOE RNA [2]; [16]): 98 % UTC; APOE RNA (% UTC) (human APOE RNA [2]; [17]): 62 % UTC; APOE RNA (% UTC) (human APOE RNA [2]; [18]): 103 % UTC; APOE RNA (% UTC) (human APOE RNA [2]; [19]): 38 % UTC; APOE RNA (% UTC) (human APOE RNA [2]; [20]): 26 % UTC; APOE RNA (% UTC) (human APOE RNA [2]; [21]): 24 % UTC; APOE RNA (% UTC) (human APOE RNA [2]; [22]): 14 % UTC; APOE RNA (% UTC) (human APOE RNA [2]; [23]): 11 % UTC; IC50 (human APOE RNA [2]; [24]): 550 nM
